The record followed here is patent US11690824B2, “Antibacterial compounds” (THE GENERAL HOSPITAL CORPORATION, priority 2018, dated 2023).

A short description of series [1]: Hepatic and renal toxicities (serum ALT, BUN) in the mouse thigh infection model. The following applies: 5 days. The method, then:
Deep-seated mouse thigh infection model. In vivo efficacy of nTZDpa alone or in combination with gentamicin against MRSA persisters was evaluated by a previously described neutropenic mouse thigh infection model with modifications. Six-week-old female CD-I mice (20-25 g, Charles River Laboratories, Wilmington, Mass., USA) were obtained from Charles River Laboratories (Wilmington, Mass., USA). The CD-I mice were rendered neutropenic by administering 150 mg/kg and 100 mg/kg of cyclophosphamide intraperitoneally (i.p.) at 4 days and 1 day before infection, respectively. On the day of infection, overnight culture of MRSA MVV2 was washed 3-time with sterile saline and diluted to 10^7 CFU/ml in the saline. 50 μl of the diluted culture (5×10^5 CFU per mouse) was injected to the right thigh of each mouse. nTZDpa was dissolved in Kolliphor EL (Sigma-Aldrich, St Louis, Mo., USA)/ethanol 1:1 and then diluted 1:10 in saline to a final concentration of 50 mg/kg. At 24 h post-infection, groups of mice (n=10) were treated with 30 mg/kg gentamicin subcutaneously (s.c.) every 12 h, 25 mg/kg vancomycin i.p. every 24 h, 50 mg/kg nTZPpa i.p. every 24 h, or the combination of 50 mg/kg nTZDpa i.p. every 24 h and 30 mg/kg gentamicin s.c. every 12 h for 5 days. Control mice were injected with 250 μl of 10% Kolliphor EL/ethanol in saline i.p. every 24 h for 5 days. Mice were euthanized at 96 h post-infection. Blood was collected by cardiac puncture, and the infected thighs were aseptically excised, weighed, and stored at 4° C. until homogenization. To evaluate hepatic and renal toxicities, the levels of alanine aminotransferase and blood urea nitrogen were analyzed with commercially available kits, following the manufacturer's protocol (Pointe Scientific, Canton, Mich., USA). Thighs were homogenized in PBS, serially diluted with PBS, and spot-plated on TSA plates. After incubating the TSA plates at 37° C. overnight, the number of colonies were enumerated to calculate CFU/g thigh tissue. This study and all experiments were performed in accordance with guidelines approved by the Rhode Island Hospital Institutional Animal Care and Use Committee (RIH IACUC). Statistical significance among each group was analyzed by one-way ANOVA with post-hoc Tukey test using PASW Statistics 18 (SPSS Inc. Chicago, Ill., USA).

Another series concerns E. aerogenes ATCC 13048. Briefly: MIC assay. It counts as cell-based, Enterobacter aerogenes. The following applies: Klebsiella aerogenes, ATCC13048; E. aerogenes ATCC 13048; read-out: Minimum inhibitory concentration. The source says: (§1) Bacterial strains, growth conditions, and persister isolation. Methicillin-resistant S. aureus strains, MW2 BAA-1707, ATCC 33591, and JE2, methicillin-susceptible S. aureus strains, NCTC 8325, Newman, and ATCC 29213, vancomycin-resistant S. aureus strain, VRS1, Enterococcus faecium E007, vancomycin-resistant E. faecium strains, C68,^7 WB312, and WC196, Klebsiella pneumoniae WGLW2 (BEI Resources, Manassas, Va., USA), Acinetobacter baumannii ATCC 17978, Pseudomonas aeruginosa PA14, and Enterobacter aerogenes ATCC 13048 were used to test antimicrobial activity (Table 1). S. aureus strains were grown in tryptic soy broth (TSB) (BD, Franklin Lakes, N.J., USA), and E. faecium was grown in brain-heart infusion (BHI) broth (BD, Franklin Lakes, N.J., USA) at 37° C. K. pneumoniae, A. baumannii, P. aeruginosa, and E. aerogenes were grown in Luria Bertani (LB) broth (BD, Franklin Lakes, N.J., USA) at 37° C.
(§2) Minimal inhibitory concentration (MIC) assay. The MICS of antibiotics were determined by the standard micro-dilution method recommended by the Clinical and Laboratory Standards Institute. MIC assays were conducted in biological triplicate.

The test system of a further series is E. faecium WC196. Briefly: MIC assay. Format: cell-based, Enterococcus faecium. The settings on record: Enterococcus faecium; E. faecium WC196; read-out: Minimum inhibitory concentration.
Excerpt: as §1, §2

The next series relates to E.faecium E007. Briefly: MIC assay. Format: cell-based, Enterococcus faecium. The following applies: Enterococcus faecium; E.faecium E007; read-out: Minimum inhibitory concentration.
Excerpt: as §1, §2

The subject of another series is E. faecium C68. Briefly: MIC assay. Format: cell-based, Enterococcus faecium. The settings on record: Enterococcus faecium; E. faecium C68; read-out: Minimum inhibitory concentration.
Excerpt: as §1, §2

Another series has as its system E. faecium WB312. Briefly: MIC assay. It counts as cell-based, Enterococcus faecium. The following applies: Enterococcus faecium; E. faecium WB312; read-out: Minimum inhibitory concentration.
Excerpt: as §1, §2

In series [2] the test system is S. aureus and Enterococcus faecium clinical strains. Briefly: MIC against a panel of clinical strains. It counts as cell-based. The following applies: panel incl. multidrug-resistant MW2 and VRS1; read-out: minimal inhibitory concentration (MIC).
Excerpt: as §1, §2

Another series deals with human erythrocytes. Briefly: Human blood hemolysis. Format: cell-based. The method, then: Human blood hemolysis. Hemolytic activity was evaluated as described in a previous study. Briefly, 100 μL of 4% human erythrocytes (Rockland Immunochemicals, Limerick, Pa., USA) was added to 100 μL of 2-fold serial dilutions of compounds in PBS, 0.2% DMSO (negative control), or 2% Triton-X 100 (positive control) in a 96-well plate. The 96-well plate was incubated at 37° C. for 1 h and then centrifuged at 500× g for 5 min. 50 μL of the supernatant was transferred to a fresh 96-well plate, and absorbance of supernatants was measured at 540 nm. Percent hemolysis was calculated using the following equation: (A540 nm of compound treated sample−A540 nm of 0.1% DMSO treated sample)/(A540 nm of 1% Triton X-100 treated sample−A540 nm of 0.1% DMSO treated sample)×100. HC50 (concentration of a compound causing 50% hemolysis) was determined using SigmaPlot 10.0 (Systat Software Inc., San Jose, Calif., USA).

A further series relates to A. baumannii ATCC 17978. Briefly: MIC assay. It counts as cell-based, Acinetobacter baumannii. The following applies: Acinetobacter baumannii, ATCC17978; A. baumannii ATCC 17978; read-out: Minimum inhibitory concentration.
Excerpt: as §1, §2

Setting [3] is: nTZDpa 50 mg/kg with gentamicin 30 mg/kg.

In brackets after ≈: the same amount, converted by molar mass. Some results are limits rather than exact numbers.

Consider `O=C(O)c1c(Sc2ccccc2)c2cc(Cl)ccc2n1Cc1ccc(Cl)cc1` [nTZDpa], for which the BUN entry in series [1] (setting [3]) is “not increasing ALT or BUN”; in [1] (nTZDpa alone 50 mg/kg i.p.), “did not increase serum levels of ALT or BUN”. Besides, the results for the “serum ALT” value in series [1] (setting [3]) and in [1] (nTZDpa alone 50 mg/kg i.p.) were “not increasing ALT or BUN” and “did not increase serum levels of ALT or BUN”, respectively. The MIC in the series with E. aerogenes ATCC 13048 is greater than 64 µg/mL; with E. faecium WC196, 4 µg/mL (≈ 9.34 µM); in the series with E.faecium E007, 4 µg/mL (≈ 9.34 µM); in the series with E. faecium C68, 4 µg/mL (≈ 9.34 µM); with E. faecium WB312, 4 µg/mL (≈ 9.34 µM); in series [2], roughly 4 µg/mL (≈ 9.34 µM). In addition, the MIC in the series on A. baumannii ATCC 17978 was greater than 64 µg/mL. Also, the “hemolysis of human erythrocytes” value with human erythrocytes (32 μg/ml) is less than 25%. The “toxicity to human erythrocytes” value in the series on human erythrocytes (at or below 16 μg/mL) is “did not show significant toxicity”. Moreover, the “HC50: median hemolytic concentration” value in the series on human erythrocytes (human erythrocytes) came to 47 µg/mL.
